Test system: laccase
Settings: 0.10 M citrate-phosphate buffer pH 2.5, room temperature; ABTS 0.05-1.00 mM; partially purified enzyme

Question: `CCn1c(=NN=c2sc3cc(S(=O)(=O)O)ccc3n2CC)sc2cc(S(=O)(=O)O)ccc21` [ABTS, 2, 2'-azino-bis (3-ethylbenzothiazoline-6-sulphonic acid)] was tested. Which Km did it give?
Answer: 100 µM
